Test results reported in US7432242B2, “Inhibitors of RGS proteins” (The Regents of the University of Michigan, priority 2002, dated 2008).
Where a SMILES comes first, the peptide text is derived from it. Bridges are numbered along the chain shown (N, C = ends). Where no end group is shown, it is not given here.

target: T1, RGS8 (Homo sapiens, UniProt P57771); experiment: Steady-state membrane GTPase assay, RGS8-stimulated; format: biochemical; conditions: not given
T1 sequence (P57771 1-180): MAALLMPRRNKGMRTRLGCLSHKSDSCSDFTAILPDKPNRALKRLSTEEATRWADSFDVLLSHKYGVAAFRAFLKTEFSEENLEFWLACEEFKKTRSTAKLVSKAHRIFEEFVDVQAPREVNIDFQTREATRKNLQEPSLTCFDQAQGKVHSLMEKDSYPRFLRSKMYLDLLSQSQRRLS
Experimental: (§1) In some embodiments, the membrane assay comprises a GTPase assay (See e.g, Berman et al., J. Biol. Chem., 271:27209 [1996] and Berman et al., Cell 86:445 [1996]). In such embodiments, α2A adrenergic receptor expressing membranes are pre-incubated with γ-^32P GTP and RGS proteins. In some embodiments, membranes contain both α2A adrenergic receptor and Gαo subunits, allowing measurement of both Gi and Go-coupled RGS proteins. In some embodiments, a steady-state GTPase assay is utilized to assay RGS inhibitors (See e.g., Wise and Milligan, J. Biol. Chem., 272:24673 [1997]).
In addition to the inhibitory activity against RGS4 mediated GTPase acceleration, three of the peptides found to be most inhibitory against RGS4 were tested for their ability to inhibit RGS8 stimulated GTPase activity.

Molecule	IC50 [µM]
CC[C@H](C)[C@@H]1NC(=O)CNC(=O)[C@H]([C@@H](C)O)NC(=O)[C@@H](NC(=O)[C@H](CCCCN)NC(=O)[C@@H](NC(C)=O)C(C)C)CCCNC(=O)CC[C@@H](C(=O)N[C@@H](CCC(=O)O)C(N)=O)NC1=O [YJ13(lactam)] (HELM PEPTIDE1{[ac].V.K.[Orn].T.G.I.E.E.[am]}$PEPTIDE1,PEPTIDE1,4:R3-8:R3$$$V2.0)	161
CC[C@H](C)[C@@H]1NC(=O)CNC(=O)[C@H]([C@@H](C)O)NC(=O)[C@@H](NC(=O)[C@H](CCCCN)NC(=O)[C@@H](NC(C)=O)C(C)C)CCC(=O)NCCCC[C@@H](C(=O)N[C@@H](CCC(=O)O)C(N)=O)NC1=O [YJ14(lactam)] (HELM PEPTIDE1{[ac].V.K.E.T.G.I.K.E.[am]}$PEPTIDE1,PEPTIDE1,4:R3-8:R3$$$V2.0)	840

target: RGS4 (Homo sapiens, UniProt P49798); experiment: Steady-state GTPase assay, RGS4-stimulated, CHO cell membranes expressing α2a AR; format: biochemical; parameters: key to Activity (inhibitory activity, relative scale): −: —(no inhibition); relative scale from—(no inhibition) to +++; conditions: RGS-stimulated GTPase activity
Experimental: as §1
This example describes a novel method of assaying for inhibitors of RGS-mediated GTPase Acceleration. A modified version of the [^35S] GTPγS binding method described in Wieland et al., 1994 (Wieland et al., Methods Enzymol. 237:3 [1994]) was utilized, with the exception that an RGS protein was included to enhance the receptor stimulation of GTPγS binding. RGS-mediated enhancement of receptor-stimulated [^35S]GTPγS binding was determined in CHO cell membranes expressing high densities (10-20 pmol/mg) of receptor. The method is not limited to the alpha 2a adrenergic receptor or the CHO membrane described herein. The membrane can be from other cell types and/or expressing other G protein coupled receptors (e.g., including, but not limited to, other Gi coupled receptors).
The assay buffer was 50 mM Tris, 5 mM MgCl2, 1 mM EDTA, 100 mM NaCl, 1 mM DTT, pH 7.6. The reaction mixture also contained the following components. Some preferred embodiments include at least one of the components marked with an *. • 1. High nanomolar or low micromolar concentrations (typically 1 μM) of GDP.* • 2. 4 μg of Chinese hamster ovary (CHO) membranes expressing the alpha 2a adrenergic receptor (α2AAR) at a receptor density of ˜10-20 pmol/mg. α2AAR-CHO membranes were prepared as previously described (Wade et al., Mol. Pharmacol. 56: 1005 [1999]). Membranes were re-suspended in Tris/MgCl2/EGTA (TME) buffer (50 mM Tris, 10 mM MgCl2, 1 mM EGTA, pH 7.6) and were aliquoted before being frozen in liquid N2 and stored at −80° C. until use. The receptor density in the α2aAR-CHO membranes was determined by [^3H] yohimbine binding and Bradford assay (Bradford, Anal. Biochem. 72: 248 [1976]). • 3. 0.2 nM-50 nM [^35S]GTPγS. A low concentration with respect to the higher concentrations of G protein and GTP utilized is necessary*. • 4. Saturating concentration of agonist for the receptor type utilized. UK 14,304 (10 μM). • 5. RGS proteins at μM or high nM ranges. • 6. GTP at high nM or low μM ranges. This is the most critical component of this method, since the massive GTP hydrolysis accelerated by RGS promotes formation of the empty DRG state which is detected by the low concentration of [^35S]GTPγS.*
Activity was measured by use of CHO cell membranes expressing the α2a AR at high levels (10-20 pmol/mg) described in Example 1 above.
Subsequently, a series of constrained peptides (Table 3) was prepared and the inhibitory activity tested. The inhibitory activity is shown in Table 3 as a relative scale from—(no inhibition) to +++.

RGS4, sequence (P49798 whole entry, species assumed): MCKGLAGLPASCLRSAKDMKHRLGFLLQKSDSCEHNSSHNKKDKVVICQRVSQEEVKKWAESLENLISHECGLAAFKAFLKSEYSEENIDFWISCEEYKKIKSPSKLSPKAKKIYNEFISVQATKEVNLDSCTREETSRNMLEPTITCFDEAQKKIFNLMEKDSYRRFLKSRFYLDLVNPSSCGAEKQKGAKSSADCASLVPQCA

Molecule	Inhibition of RGS-mediated GTPase acceleration (in words)
VKTTGIVE	no activity

same assay, conditions: inhibition of RGS4-mediated GTPase acceleration

Molecule	Activity (inhibitory activity, relative scale)
ES2(Et) (VKCTGFCE; cysteine pairing not given here; also: Et modification)	+++
JO1(Et) (VKCTGICE; cysteine pairing not given here; also: Et modification)	−
YJ4(Et) (VKCTSICE; bridge 3-7; also: Et modification, place not given here, cross-link 3-7: disulfide, thioether or lactam)	+++
YJ5(Et) (KCTSICE; cysteine pairing not given here; also: Et modification)	−
YJ6(Et) (VKCTSICE; bridge 3-7; also: Et modification, place not given here, cross-link 3-7: disulfide, thioether or lactam)	−
YJ15(Et) (VKCTGICE; bridge 3-7; also: Et modification, place not given here, cross-link 3-7: disulfide, thioether or lactam)	−

same assay, conditions: steady-state membrane GTPase assay

Molecule	IC50 [µM]
CC[C@H](C)[C@@H]1NC(=O)CNC(=O)[C@H]([C@@H](C)O)NC(=O)[C@@H](NC(=O)[C@H](CCCCN)NC(=O)[C@@H](NC(C)=O)C(C)C)CSCCSC[C@@H](C(=O)N[C@@H](CCC(=O)O)C(N)=O)NC1=O [JMRAc(Et)] (HELM PEPTIDE1{[ac].V.K.C.T.G.I.C.E.[am]}|CHEM1{[C(C[*:2])[*:1]]}$PEPTIDE1,CHEM1,4:R3-1:R1|PEPTIDE1,CHEM1,8:R3-1:R2$$$V2.0)	88
CC[C@H](C)[C@@H]1NC(=O)CNC(=O)[C@H]([C@@H](C)O)NC(=O)[C@@H](NC(=O)[C@H](CCCCN)NC(=O)[C@@H](NC(C)=O)C(C)C)CCCNC(=O)CC[C@@H](C(=O)N[C@@H](CCC(=O)O)C(N)=O)NC1=O [YJ13(lactam)] (HELM PEPTIDE1{[ac].V.K.[Orn].T.G.I.E.E.[am]}$PEPTIDE1,PEPTIDE1,4:R3-8:R3$$$V2.0)	25
CC[C@H](C)[C@@H]1NC(=O)CNC(=O)[C@H]([C@@H](C)O)NC(=O)[C@@H](NC(=O)[C@H](CCCCN)NC(=O)[C@@H](NC(C)=O)C(C)C)CCC(=O)NCCCC[C@@H](C(=O)N[C@@H](CCC(=O)O)C(N)=O)NC1=O [YJ14(lactam)] (HELM PEPTIDE1{[ac].V.K.E.T.G.I.K.E.[am]}$PEPTIDE1,PEPTIDE1,4:R3-8:R3$$$V2.0)	260
CC[C@H](C)[C@@H]1NC(=O)CNC(=O)[C@H]([C@@H](C)O)NC(=O)[C@@H](NC(=O)[C@H](CCCCN)NC(=O)[C@@H](NC(C)=O)C(C)C)CSCSC[C@@H](C(=O)N[C@@H](CCC(=O)O)C(N)=O)NC1=O [Yja] (HELM PEPTIDE1{[ac].V.K.C.T.G.I.C.E.[am]}|CHEM1{[C([*:1])[*:2]]}$PEPTIDE1,CHEM1,4:R3-1:R1|PEPTIDE1,CHEM1,8:R3-1:R2$$$V2.0)	79
CC[C@H](C)[C@@H]1NC(=O)CNC(=O)[C@H]([C@@H](C)O)NC(=O)[C@@H](NC(=O)[C@H](CCCCN)NC(=O)[C@@H](NC(C)=O)C(C)C)CSSC[C@@H](C(=O)N[C@@H](CCC(=O)O)C(N)=O)NC1=O [Yjb] (HELM PEPTIDE1{[ac].V.K.C.T.G.I.C.E.[am]}$PEPTIDE1,PEPTIDE1,4:R3-8:R3$$$V2.0)	26
